Data from publication PMC3917258, “6-Bromoisatin Found in Muricid Mollusc Extracts Inhibits Colon Cancer Cell Proliferation and Induces Apoptosis, Preventing Early Stage Tumor Formation in a Colorectal Cancer Rodent Model” (Marine Drugs, 2013).

How the values were obtained:
[1] = test system: lymphoma (U937) cell line; parameters: method as in PMID 17088067; conditions: cited from earlier work
[2] = test system: human promyelocytic leukemia (HL60) cancer cells; parameters: method as in PMID 11006132; conditions: 100 µM; cited from earlier work
[3] = test system: human neuroblastoma SH-SY5Y cells; parameters: method as in PMID 15876476; conditions: 50 µM; cited from earlier work
ERK-2 = test system: ERK-2; parameters: method as in PMID 11006132; conditions: 100 µM, compared to the control; cited from earlier work
[4] = test system: caspase 3/7 activity in HT29 cells; assay: Caspase-Glo 3/7 assay; assay type: cell-based, human; conditions: positive control, 5 µM, 12 h
Method: All media and chemicals were purchased from Sigma Aldrich (Castle Hill, NSW, Australia) unless otherwise stated. HT29 human colorectal cancer cell line (passage no. 36-42) were cultured (37 °C and 5% CO2) in Dulbecco’s Modified Eagle’s Medium (DMEM) supplemented with 4500 mg/L L-glutamine, 10% FBS, 100 U/mL Penicillin/Streptomycin and 1% Non-essential Amino Acid (100×), until the cells reached 70% confluence. The cells were harvested from flasks by trypsinization (1× Trypsin-EDTA) and were seeded (20,000 cells/well) into clear 96-well plates (Costar®, Mt Martha, VIC, Australia) for measurement of cell viability and white (opaque) 96-well plates (Interpath, Heidelberg West, VIC, Australia) for determination of apoptosis and necrosis. HT29 cells were incubated for 48 h, then the media was removed and the cells were washed with PBS. To treat the cells, synthetic 6-bromoisatin was dissolved in 100% dimethylsulphoxide (DMSO) then diluted in media and added to the cells at a range of concentrations from 0.1 to 0.01 mg/mL, in triplicate (final DMSO concentration of 1%). 1% DMSO controls were also included on each plate. Staurosporine (5 µM) for apoptosis and lysis solution (5 μL/well, Promega, Alexandria, NSW, Australia) for necrosis were added to the white plates in triplicate, as positive controls. All cells were treated for 12 h. Morphological changes in the cells were observed on an Olympus CK2 inverted optical microscope (×400 magnification) 12 h after treatment. To measure cell viability, the MTT assay was applied, which measures the reduction of MTT tetrazolium salt to formazan, as previously described. To measure necrosis and apoptosis, CytoTox-ONE Homogeneous Membrane Integrity Assay reagent (Promega) and Caspase-Glo 3/7® assay (Promega) were applied respectively, according to our previous study. These assays were all repeated in triplicate on three separate occasions (n = 3).

## O=C1Nc2ccc(Br)cc2C1=O [5-bromo-]
[1]
  activity for killing cancer cells relative to unsubstituted isatin: 5–10 times

## O=C1Nc2ccc(F)cc2C1=O [5-fluoroisatin]
[1]
  activity for killing cancer cells relative to unsubstituted isatin: 5–10 times

## O=C1Nc2ccc(I)cc2C1=O [5-iodo-]
[1]
  activity for killing cancer cells relative to unsubstituted isatin: 5–10 times

## O=C1Nc2ccccc2C1=O [isatin, 1H-indole-2,3-dione]
[2]
  reduction of cell proliferation: 80%
[3]
  apoptosis: apoptosis was observed
ERK-2
  inhibition of phosphorylation of ERK-2: 35%

## CN[C@@H]1C[C@H]2O[C@@](C)([C@@H]1OC)n1c3ccccc3c3c4c(c5c6ccccc6n2c5c31)C(=O)NC4 [staurosporine, reference compound]
[4]
  caspase 3/7 activity: significant increase
